Drawing on patent US20130204033A1, “ANTIPROLIFERATIVE COMPOUNDS, CONJUGATES THEREOF, METHODS THEREFOR, AND USES THEREOF” (Medarex, Inc., priority 2009, published 2013), this text covers EC50 for three compounds.

Format in all cases: cell-based, human
The test system of one assay is PC3. Kind of assay: 3H thymidine proliferation assay, PC3. The conditions noted are these: Homo sapiens, PC-3, read-out: EC50, PC3, 3H thymidine method, 72 h incubation. The method in brief:
(§1)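 Seeding: 1.0×10^4 cells/well, 3 h. Dosing: 1:3 serial dilutions, 72 h. Label: ^3H-thymidine 1.0 μCi/well for last 24 h, scintillation read; EC50 = 50% proliferation reduction.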

The test system of the next assay is 786-O. The assay can be described thus: 3H thymidine proliferation assay, 786-O. The conditions noted are these: Homo sapiens, 786-0, read-out: EC50, 786-O, 3H thymidine method, 72 h incubation. The gist of the method: as §1
Another assay deals with UO-31. Kind of assay: 3H thymidine proliferation assay, UO-31. The conditions noted are these: Homo sapiens, UO-31, read-out: EC50, UO-31, 3H thymidine method, 72 h incubation. The gist of the method:
as §1

In another assay the test system is SK-BR3. Kind of assay: 3H thymidine proliferation assay, SK-BR3. The conditions noted are these: Homo sapiens, SK-BR-3; 3H thymidine method, 72 h incubation. The method in brief: as §1
Assay [1] has as its system OVCAR3. The assay can be described thus: 3H thymidine proliferation assay, OVCAR3. The conditions noted are these: Homo sapiens, OVCAR-3, read-out: EC50, OVCAR3, 3H thymidine method, 72 h incubation. The method in brief: as §1
Assay [2] relates to HL-60. Kind of assay: 3H thymidine proliferation assay, HL-60. The conditions noted are these: Homo sapiens, HL-60, read-out: EC50, HL-60, 3H thymidine method, 72 h incubation. The method in brief: as §1
The test system of another assay is RPMI-8226. Kind of assay: 3H thymidine proliferation assay, RPMI-8226. The conditions noted are these: Homo sapiens, RPMI-8226, read-out: EC50, RPMI-8226, 3H thymidine method, 72 h incubation. The method in brief:
as §1

The test system of the next assay is Raji. Kind of assay: 3H thymidine proliferation assay, Raji. The conditions noted are these: Homo sapiens, Raji, read-out: EC50, Raji, 3H thymidine method, 72 h incubation. The method in brief: as §1
For another assay, the system named is HCT-15. The assay can be described thus: ATP luminescence proliferation assay, HCT-15. The conditions noted are these: Homo sapiens. The method in brief:
(§2)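 Cells seeded at 1.0×10^3 cells/well for 3 h, then exposed to 1:3 serial dilutions of free compounds or conjugates for 48, 72 or 96 h as noted. ATP measured by Glo luminescent viability kit; EC50 taken as concentration reducing proliferation by 50%.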

The test system of a further assay is U-87 MG. The assay can be described thus: ATP luminescence proliferation assay, U-87 MG. The conditions noted are these: Homo sapiens, 72 h, read-out: EC50 U-87 MG (72 h), ATP luminescence, U-87 MG, 72 h incubation. As for the experimental part:
(§3) This example generally describes the procedures used to assay the antiproliferative activity of compounds of this invention or their conjugates. Human tumor cell lines were obtained from the American Type Culture Collection (ATCC), P.O. Box 1549, Manassas, Va. 20108, USA, and cultured according to instruction from the ATCC. Cells were seeded at 1.0×10^3 or 1.0×10^4 cells/well in 96-well plates for 3 h for ATP assays or ^3H thymidine assays, respectively. 1:3 serial dilutions of free (unconjugated) compounds or their conjugates were added to the wells. Plates were allowed to incubate for 24 to 72 h. The ^3H thymidine plates were pulsed with 1.0 μCi of ^3H-thymidine per well for the last 24 hours of the total incubation period, harvested, and read on a Top Count Scintillation Counter (Packard Instruments, Meriden, Conn.). ATP levels in the ATP plates were measured using the […]-GLO® Luminescent Cell Viability kit following the manufacturer's manual and read on a GLOMAX® 20/20 luminometer (both from Promega, Madison, Wis., USA). The EC50 values—the concentration at which an agent inhibits or reduces cell proliferation by 50% —were determined using PRISM™ software, version 4.0 (GraphPad Software, La Jolla, Calif., USA).
(§4) Using the ^3H thymidine or the ATP luminescence assay, or both, the activities of compounds of this invention were assayed against the following cancer cell lines: HCT-15 (colorectal cancer, multi-drug resistant (MDR)); Hep3B (liver cancer); LNCaP (prostate cancer, androgen receptor positive (AR^+)); MDA-MB-231 (breast cancer, estrogen receptor, progesterone receptor, and Her2 negative (triple negative)); A2058 (melanoma); U-87 MG (glioblastoma); NCI-H460 (NSCLC); A549 (NSCLC); HPAC (pancreatic cancer, primary); PC3 (prostate cancer, AR); BT474 (breast cancer, Her2 highly positive (Her2hi)); SKOV3 (ovarian cancer, Her2hi); 786-O (renal cancer); UO-31 (renal cancer, MDR); NCI-H740 (SCLC); DMS53 (SCLC); SK-BR3 (breast cancer, Her2hi); ZR-75 (breast cancer, estrogen receptor positive); OVCAR3 (ovarian cancer); HL-60 (APL); OVCAR8/Adr (ovarian cancer, MDR); CEM-Cl (ALL); Nomo-1 (AML); RPMI-8226 (MM)); Raji (lymphoma); SW-480 (colorectal cancer, metastatic); SW-620 (colorectal cancer); and H226 (lung cancer). (Not all compounds were assayed against all cell lines.)
(§5) Table 3 provides the data for the ATP luminescence proliferation assays, with an incubation period of 48, 72, or 96 h, as noted.

The test system of the next assay is NCI-H460. Kind of assay: ATP luminescence proliferation assay, NCI-H460. The conditions noted are these: Homo sapiens, NCI-H460, 72 h, read-out: EC50 NCI-H460 (72 h), ATP luminescence, NCI-H460, 72 h incubation. As for the experimental part:
as §3, §4, §5

The next assay deals with HPAC. Kind of assay: ATP luminescence proliferation assay, HPAC. The conditions noted are these: Homo sapiens, 72 h, read-out: EC50 HPAC (72 h), ATP luminescence, HPAC, 72 h incubation. As for the experimental part: as §3, §4, §5
The test system of the next assay is ZR-75. The assay can be described thus: ATP luminescence proliferation assay, ZR-75. The conditions noted are these: Homo sapiens, ZR75, 48 h, read-out: EC50 ZR-75 (48 h), ATP luminescence, ZR-75, 48 h incubation. As for the experimental part:
as §3, §4, §5

Assay [3] deals with OVCAR3. Kind of assay: ATP luminescence proliferation assay, OVCAR3. The conditions noted are these: Homo sapiens. The method in brief: as §2
Assay [4] concerns HL-60. Kind of assay: ATP luminescence proliferation assay, HL-60. The conditions noted are these: Homo sapiens. The method in brief: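 Read-out: luminescent ATP cell viability after 48, 72 or 96 h incubation, as noted, with 1:3 serial dilutions of unconjugated compounds or their conjugates. Plating was 1.0×10^3 cells/well, 3 h before dosing. EC50 = concentration giving 50% inhibition of proliferation.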

The test system of another assay is CEM-Cl. The assay can be described thus: ATP luminescence proliferation assay, CEM-C1. The conditions noted are these: Homo sapiens. As for the experimental part:
as §3, §4, §5

For a further assay, the system named is SW-480. Kind of assay: ATP luminescence proliferation assay, SW-480. The conditions noted are these: Homo sapiens, SW480, 96 h, read-out: EC50 SW480 (96 h), ATP luminescence, SW480, 96 h incubation. As for the experimental part: as §3, §4, §5
Another assay relates to SW-620. The assay can be described thus: ATP luminescence proliferation assay, SW-620. The conditions noted are these: Homo sapiens, SW-620, 96 h, read-out: EC50 SW-620 (96 h), ATP luminescence, SW-620, 96 h incubation. As for the experimental part:
as §3, §4, §5

Where [5] appears, read: HCT-15, 72 h, read-out: EC50 HCT-15 (72 h), ATP luminescence, HCT-15, 72 h incubation.
Where [6] appears, read: OVCAR-3, 48 h, read-out: EC50 OVCAR3 (48 h), ATP luminescence, OVCAR3, 48 h incubation.
Setting [7] is: HL-60, 72 h, read-out: EC50 HL-60 (72 h), ATP luminescence, HL-60, 72 h incubation.
The mark [8] stands for this setting: CEM/C1, 72 h, read-out: EC50 CEM-C1 (72 h), ATP luminescence, CEM-C1, 72 h incubation.

Where two headings read alike, the source gives them in different places. Bounds are passed on as bounds.

For orientation: EC50 means the concentration needed to bring the measured effect to its halfway point.

Regarding `CC[C@H](C)[C@H](NC(=O)[C@H]1CCCCN1C)C(=O)N(C)[C@H](C[C@@H](OC)c1nc(C(=O)N[C@@H](Cc2ccccc2)C(=O)N[C@@H](C)C(=O)OC)cs1)C(C)C` [Compound 24], the EC50 was 63 nM with PC3; over 100 nM with 786-O; over 100 nM with UO-31; over 100 nM in the assay with SK-BR3; 90 nM in the assay with OVCAR3 [1]; 6.9 nM in the assay with HL-60 [2]. Besides, the EC50 came to 17 nM in the assay on RPMI-8226; 11 nM in the assay with Raji; 188 nM in the assay with HCT-15 (setting [5]); 18 nM with U-87 MG; 23 nM in the assay on NCI-H460; 1.1 nM with HPAC. The concentration giving a half-maximal response (EC50) is 8.4 nM in the assay on ZR-75; 29 nM with OVCAR3 [3] (setting [6]); 6.4 nM in the assay on HL-60 [4] (setting [7]); 8.7 nM in the assay with CEM-Cl (setting [8]); 42 nM with SW-480; 10 nM with SW-620.

With `CC[C@H](C)[C@H](NC(=O)[C@H]1CCCCN1C)C(=O)N(C)[C@H](C[C@@H](OC)c1nc(C(=O)N[C@H](CC(=O)OC)Cc2ccccc2)cs1)C(C)C` [Compound 25], the concentration giving a half-maximal response (EC50) with PC3 stood at 319 nM; in the assay with 786-O, 1860 nM; in the assay on UO-31, 435 nM; in the assay on SK-BR3, 1710 nM; in the assay with OVCAR3 [1], 379 nM; in the assay on HL-60 [2], 308 nM. In addition, the half-maximal effective concentration (EC50) came to 396 nM in the assay on RPMI-8226; 231 nM with Raji; 366 nM in the assay on HCT-15 (setting [5]); 357 nM in the assay with U-87 MG; 177 nM in the assay on NCI-H460; 97 nM with HPAC. The EC50 in the assay with ZR-75 was 1000 nM; with OVCAR3 [3] (setting [6]) it was over 3000 nM; in the assay on HL-60 [4] (HL-60, 48 h, read-out: EC50 HL-60 (48 h), ATP luminescence, HL-60, 48 h incubation), 224 nM; in the assay with CEM-Cl (setting [8]) it was 176 nM; in the assay on SW-480, 261 nM; in the assay with SW-620 it was 193 nM.

Take `CC[C@H](C)[C@H](NC(=O)[C@H]1CCCCN1C)C(=O)N(C)[C@H](C[C@@H](OC)c1nc(C(=O)N[C@H](CCC(=O)OC)Cc2ccccc2)cs1)C(C)C` [Compound 26]: the EC50 amounted to 16 nM in the assay on PC3; 26 nM in the assay with 786-O; 50 nM in the assay on UO-31; 32 nM in the assay with SK-BR3; 3.2 nM in the assay with OVCAR3 [1]; 0.45 nM in the assay on HL-60 [2]. Moreover, the concentration giving a half-maximal response (EC50) is 7.7 nM in the assay with RPMI-8226; 7 nM with Raji; 113 nM in the assay with HCT-15 (HCT-15, 48 h, read-out: EC50 HCT-15 (48 h), ATP luminescence, HCT-15, 48 h incubation); 94 nM in the assay on U-87 MG; 90 nM with NCI-H460; 279 nM in the assay with HPAC. Further, the 50% effective concentration (EC50) was 208 nM in the assay with ZR-75; 49 nM in the assay with OVCAR3 [3] (OVCAR-3, 72 h, read-out: EC50 OVCAR3 (72 h), ATP luminescence, OVCAR3, 72 h incubation); 27 nM with HL-60 [4] (setting [7]); 61 nM with CEM-Cl (CEM/C1, 48 h, read-out: EC50 CEM-C1 (48 h), ATP luminescence, CEM-C1, 48 h incubation); 67 nM with SW-480; 48 nM in the assay with SW-620.
